In patent US4839374A, “4-((Bicyclic heterocyclyl)-methyl and -hetero)-piperidines” (Janssen Pharmaceutica, N.V., priority 1987, dated 1989):
Where two headings read alike, the source gives them in different places.

Tests used:
effects of serotonin [1] = conditions: rats, compound 48/80; known serotonin-antagonists; cited from earlier work
[2] = system: compound 48/80-induced lethality; experiment: Protection of rats from compound 48/80-induced lethality; format: in vivo, rats of an inbred Wistar strain; conditions: Rattus norvegicus, 4 h, read-out: Compound 48/80 lethality test in rats ED50, s.c. or p.o. 1 h before compound 48/80 0.5 mg/kg i.v.; protection of 50% of animals, survival after 4 hours
How it was run: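 Male inbred Wistar rats (240-260 g), starved overnight, dosed subcutaneously or orally with compound or 0.9% NaCl before compound 48/80 challenge. Survival at 4 hours counted as protection. ED50 in mg/kg is the dose protecting 50% of animals from lethality.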

effects of serotonin [3] = experiment: Antagonistic activity on the effects of serotonin in the gastric lesion test (lesions induced by compound 48/80); format: in vivo, rats of a Wistar inbred strain; conditions: for ED50: Rattus norvegicus, po, read-out: gastric lesion test ED50
How it was run: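 Fasted male Wistar rats (220–250 g) dosed orally with compound; 1 h later 2.5 mg/kg s.c. H1 antagonist, then compound 48/80 i.v. Stomachs examined 4 h afterwards for distension and glandular lesions (scored 0 to +++); ED50 is the oral dose (mg/kg) abolishing both in 50% of rats.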

[4] = compound 48/80 1 mg/kg i.v., distension and lesions of stomach completely absent in 50% of rats

Row | SMILES | prevention of cyanosis of ears and extremities, lesions in the glandular area of the stomach and abnormal gastric distension (effects of serotonin [1]) | ED50 [2] [mg/kg] | ED50 (effects of serotonin [3]; [4]) [mg/kg] | other results
1 | CN1C[C@H](CNC(=O)OCc2ccccc2)C[C@@H]2c3cccc4c3c(cn4C)C[C@H]21 [metergoline] | prevent completely |  |  | 
2 | CC[C@@H](CO)NC(=O)[C@@H]1C=C2c3cccc4c3c(cn4C)C[C@H]2N(C)C1 [methysergide] | prevent completely |  |  | 
3 | CN1CCN2c3ccccc3Cc3ccccc3C2C1 (stereo not shown) [mianserin] | prevent completely |  |  | 
4 | O=C(CCCN1CCC2(CC1)C(=O)NCN2c1ccccc1)c1ccc(F)cc1 [spiperone] | prevent completely |  |  | 
5 | CN1CCC(=C2c3ccccc3C=Cc3ccccc32)CC1 [cyproheptadine] | prevent completely |  |  | 
6 | NC(=O)C1(N2CCCCC2)CCN(CCCC(=O)c2ccc(F)cc2)CC1 [pipamperone] | prevent completely |  |  | 
7 | CN(C)CCCSc1ccccc1NC(=O)/C=C/c1ccccc1 [cinanserin] | prevent completely |  |  | 
8 | CN1CCC(=C2c3ccccc3CCc3sccc32)CC1 [pizotifen] | prevent completely |  |  | 
9 | O=C(CCCN1CCC(Cc2nc3cccnc3n2Cc2ccc(F)cc2)CC1)c1ccc(F)cc1 [Compound 127] |  | 0.08 |  | gastric lesion test ED50 (effects of serotonin [3]; oral, compound 48/80 1 mg/kg i.v., distension and lesions of stomach completely absent in 50% of rats, 1 mg/kg): 0.63 mg/kg body weight
10 | Cc1nc2ccccn2c(=O)c1CCN1CCC(Cc2nc3ccccc3n2Cc2ccc(F)cc2)CC1 [Compound 214] |  | 0.08 |  | ED50 (effects of serotonin [3]): 0.04 mg/kg
11 | Fc1ccc(Cn2c(CC3CCN(CCc4ccccn4)CC3)nc3cccnc32)cc1 [Compound 101] |  | 0.02 | 0.31 | 
12 | CN(C)C(=O)NCCN1CCC(Cc2nc3cccnc3n2Cc2ccc(F)cc2)CC1 [Compound 448, N'-[2-[4-[[3-[(4-fluorophenyl)methyl]-3H-imidazo[4,5-b]pyridin-2-yl]methyl]-1-piperidinyl]ethyl]-N,N-dimethylurea] |  | 0.08 | 0.16 | 
13 | N#CCN1CCC(Cc2nc3ccccc3n2Cc2ccc(F)cc2)CC1 [Compound 283] |  | 0.04 | 0.63 | 
14 | Fc1ccc(Cn2c(CC3CCN(CCNc4ccccn4)CC3)nc3ccccc32)cc1 [Compound 499] |  | 0.04 | 0.01 | 
15 | Fc1ccc(Cn2c(CC3CCN(CCNc4cc(Cl)ncn4)CC3)nc3ccccc32)cc1 [Compound 384] |  | 0.08 | 0.63 | 
16 | Cc1cc(NCCN2CCC(Cc3nc4ccccc4n3Cc3ccc(F)cc3)CC2)nc(Cl)n1 [Compound 383, 2-chloro-N-[2-[4-[[1-[(4-fluorophenyl)methyl]-1H-benzimidazol-2-yl]methyl]-1-piperidinyl]ethyl]-6-methyl-4-pyrimidinamine] |  | 0.04 | 0.16 | 
17 | S=C=NCCN1CCC(Cc2nc3ccccc3n2Cc2cccs2)CC1 [Compound 397] |  | 0.04 |  | ED50 (effects of serotonin [3]): 0.04 mg/kg
18 | O=c1[nH]c2ccccc2c(=O)n1CCN1CCC(Cc2nc3ccccc3n2Cc2cccs2)CC1 [Compound 186] |  | 0.04 | 0.31 | 
19 | O=C(NCCN1CCC(Cc2nc3ccccc3n2Cc2ccc(F)cc2)CC1)c1cccs1 [Compound 443, N-[2-[4-[[1-[(4-fluorophenyl)methyl]-1H-benzimidazol-2-yl]methyl]-1-piperidinyl]ethyl]-2-thiophenecarboxamide] |  | 0.02 | 0.16 | 
20 | Fc1ccc(Cn2c(CC3CCN(CCn4c(S)nc5cncnc54)CC3)nc3ccccc32)cc1 [Compound 495, 9-[2-[4-[[1-[(4-fluorophenyl)methyl]-1H-benzimidazol-2-yl]methyl]-1-piperidinyl]ethyl]-9H-purine-8-thiol] |  | 0.04 | 0.16 | 
21 | c1ccc(Cn2c(CC3CCN(CCNc4nc5cnccc5[nH]4)CC3)nc3ccccc32)cc1 [Compound 422, N-[2-[4-[[1-(phenylmethyl)-1H-benzimidazol-2-yl]methyl]-1-piperidinyl]ethyl]-1H-imidazo[4,5-c]pyridin-2-amine] |  | 0.04 |  | ED50 (effects of serotonin [3]): 0.04 mg/kg
